Our source for the DC50 and Dmax values is patent publication US12091426B2, “Bifunctional degraders of hematopoietic progenitor kinase and therapeutic uses thereof” (Nurix Therapeutics, Inc., priority 2021, dated 2024).

The target in the test is T1, HPK1 (Homo sapiens, UniProt Q92918).
T1 construct: A HiBiT tag was introduced by CRISPR on the N terminus of HPK1 in Jurkat cells; host or cells: Jurkat cells (ATCC TIB-152), monoclonal line with CRISPR knock-in of HiBiT at the endogenous HPK1 locus
T1 sequence (Q92918 whole entry): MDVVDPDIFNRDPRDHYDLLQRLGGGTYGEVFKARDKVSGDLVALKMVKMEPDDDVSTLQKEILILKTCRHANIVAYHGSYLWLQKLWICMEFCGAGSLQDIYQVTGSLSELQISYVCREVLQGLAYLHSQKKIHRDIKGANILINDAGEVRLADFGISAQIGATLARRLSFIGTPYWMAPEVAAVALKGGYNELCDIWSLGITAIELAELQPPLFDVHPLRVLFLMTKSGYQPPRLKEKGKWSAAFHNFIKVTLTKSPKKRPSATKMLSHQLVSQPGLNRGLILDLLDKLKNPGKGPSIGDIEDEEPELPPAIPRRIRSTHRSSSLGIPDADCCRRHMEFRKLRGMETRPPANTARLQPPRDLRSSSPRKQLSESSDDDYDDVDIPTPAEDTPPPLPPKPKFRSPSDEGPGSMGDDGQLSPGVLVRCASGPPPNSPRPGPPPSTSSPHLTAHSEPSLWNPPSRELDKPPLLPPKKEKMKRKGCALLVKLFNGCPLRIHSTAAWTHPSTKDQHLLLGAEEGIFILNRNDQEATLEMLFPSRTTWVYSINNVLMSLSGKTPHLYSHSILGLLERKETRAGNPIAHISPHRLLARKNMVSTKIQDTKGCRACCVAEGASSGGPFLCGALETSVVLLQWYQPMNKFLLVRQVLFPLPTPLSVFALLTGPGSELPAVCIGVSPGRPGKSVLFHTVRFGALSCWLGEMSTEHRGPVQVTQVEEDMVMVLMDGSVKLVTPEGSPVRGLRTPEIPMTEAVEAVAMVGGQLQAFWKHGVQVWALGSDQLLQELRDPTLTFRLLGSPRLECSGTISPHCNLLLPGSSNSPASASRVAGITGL
Kind of test: HPK1 Cellular HiBit Degradation Assay. The test is classed as cell-based. To be noted: HiBiT HPK1 Jurkat cells, 24 hrs; for DC50: concentration at which 50% of HPK1 was remaining, read-out: DC50 Category; for Dmax: Jurkat, maximum degradation vs DMSO vehicle control, read-out: Dmax Category. A digest of the protocol:
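Degraders are dosed in an 11-point series (10 uM to 0.1 nM final) onto Jurkat cells carrying an N-terminal HiBiT tag on endogenous HPK1. After 24 hrs at 37° C, lysis-based HiBiT luminescence quantifies remaining HPK1 relative to vehicle, and curve fitting gives DC50 and Dmax.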

Molecules are shown by their SMILES. Bounds are passed on as bounds.

For `CC(C)n1cnc2cc(-c3ccc4c(c3)N([C@H]3C[C@@H](N5C6COCC5C6)C3)C(=O)C43CCN(C(=O)C4(C)CCN(C(=O)C5CCN(c6ccc(C7CCC(=O)NC7=O)cn6)CC5)CC4)CC3)nc(NC3CC3)c21` (mixture of isomers) [Example 218, (3RS)-3-(6-{4-[4-({6-[4-(cyclopropylamino)-3-(propan-2-yl)-3H-imidazo[4,5-c]pyridin-6-yl]-2-oxo-1-[(1S,3S)-3-{3-oxa-6-azabicyclo[3.1.1]heptan-6-yl}cyclobutyl]-1,2-dihydrospiro[indole-3,4′-piperidin]-1′-yl}carbonyl)-4-methylpiperidine-1-carbonyl]piperidin-1-yl}pyridin-3-yl)piperidine-2,6-dione], the DC50 fell in the range of 100 to 500 nM and the Dmax fell in the range of 50 to 70%.

On to `CC(C)n1cnc2cc(-c3ccc4c(c3)N([C@H]3C[C@@H](N5CCC[C@@H](F)C5)C3)C(=O)C43CCN(C(=O)C4(C)CCN(C(=O)C5CCN(c6ccc(C7CCC(=O)NC7=O)cn6)CC5)CC4)CC3)nc(NC3CC3)c21` (mixture of isomers) [Example 219, (3RS)-3-(6-{4-[4-({6-[4-(cyclopropylamino)-3-(propan-2-yl)-3H-imidazo[4,5-c]pyridin-6-yl]-2-oxo-1-[(1S,3S)-3-[(3R)-3-fluoropiperidin-1-yl]cyclobutyl]-1,2-dihydrospiro[indole-3,4′-piperidin]-1′-yl}carbonyl)-4-methylpiperidine-1-carbonyl]piperidin-1-yl}pyridin-3-yl)piperidine-2,6-dione], for which the DC50 fell in the range of 100 to 500 nM and the Dmax lay in the range of 70 to 85%.

For the compound `CC(C)n1cnc2cc(-c3ccc4c(c3)N([C@H]3C[C@@H](N5CCCCC5)C3)C(=O)C43CCN(C(=O)C4(C)CCN(C(=O)C5CCN(c6ncc(C7CCC(=O)NC7=O)cn6)CC5)CC4)CC3)nc(NC3CC3)c21` (mixture of isomers) [Example 220, (3RS)-3-(2-{4-[4-({6-[4-(cyclopropylamino)-3-(propan-2-yl)-3H-imidazo[4,5-c]pyridin-6-yl]-2-oxo-1-[(1S,3S)-3-(piperidin-1-yl)cyclobutyl]-1,2-dihydrospiro[indole-3,4′-piperidin]-1′-yl}carbonyl)-4-methylpiperidine-1-carbonyl]piperidin-1-yl}pyrimidin-5-yl)piperidine-2,6-dione], the DC50 was below 100 nM and the Dmax is 70 to 85%.

Take `CC(C)n1cnc2cc(-c3ccc4c(c3)N([C@H]3C[C@@H](N5CCCCC5)C3)C(=O)C43CCN(C(=O)C4(C)CCN(C(=O)CC5CCN(c6ccc(C7CCC(=O)NC7=O)cn6)CC5)CC4)CC3)nc(NC3CC3)c21` (mixture of isomers) [Example 221, (3RS)-3-[6-(4-{2-[4-({6-[4-(cyclopropylamino)-3-(propan-2-yl)-3H-imidazo[4,5-c]pyridin-6-yl]-2-oxo-1-[(1S,3S)-3-(piperidin-1-yl)cyclobutyl]-1,2-dihydrospiro[indole-3,4′-piperidin]-1′-yl}carbonyl)-4-methylpiperidin-1-yl]-2-oxoethyl}piperidin-1-yl)pyridin-3-yl]piperidine-2,6-dione]: the 50% degradation concentration (DC50) was below 100 nM and the Dmax fell in the range of 70 to 85%.

On to `CC(C)n1cnc2cc(-c3ccc4c(c3)N([C@H]3C[C@@H](N5C6CCC5COC6)C3)C(=O)C43CCN(C(=O)C4(C)CCN(C(=O)CC5CCN(c6ccc(C7CCC(=O)NC7=O)cn6)CC5)CC4)CC3)nc(NC3CC3)c21` (mixture of isomers) [Example 222, (3RS)-3-[6-(4-{2-[4-({6-[4-(cyclopropylamino)-3-(propan-2-yl)-3H-imidazo[4,5-c]pyridin-6-yl]-2-oxo-1-[(1S,3S)-3-{3-oxa-8-Azabicyclo[3.2.1]octan-8-yl}cyclobutyl]-1,2-dihydrospiro[indole-3,4′-piperidin]-1′-yl}carbonyl)-4-methylpiperidin-1-yl]-2-oxoethyl}piperidin-1-yl)pyridin-3-yl]piperidine-2,6-dione], for which the 50% degradation concentration (DC50) was 100 to 500 nM and the Dmax is 50 to 70%.

For `CC(C)n1cnc2cc(-c3ccc4c(c3)N([C@H]3C[C@@H](N5CC6CCC(C6)C5)C3)C(=O)C43CCN(C(=O)C4(C)CCN(C(=O)CC5CCN(c6ccc(C7CCC(=O)NC7=O)cn6)CC5)CC4)CC3)nc(NC3CC3)c21` (mixture of isomers) [Example 223, (3RS)-3-[6-(4-{2-[4-({6-[4-(cyclopropylamino)-3-(propan-2-yl)-3H-imidazo[4,5-c]pyridin-6-yl]-2-oxo-1-[(1S,3S)-3-{3-azabicyclo[3.2.1]octan-3-yl}cyclobutyl]-1,2-dihydrospiro[indole-3,4′-piperidin]-1′-yl}carbonyl)-4-methylpiperidin-1-yl]-2-oxoethyl}piperidin-1-yl)pyridin-3-yl]piperidine-2,6-dione], the DC50 was below 100 nM and the maximal degradation (Dmax) lay within 70 to 85%.

With `CC(C)n1cnc2cc(-c3ccc4c(c3)N([C@H]3C[C@@H](N5CCCCC5)C3)C(=O)C43CCN(C(=O)C4(C)CCN(C(=O)CN5CCC(c6ccc(C7CCC(=O)NC7=O)cn6)CC5)CC4)CC3)nc(NC3CC3)c21` (mixture of isomers) [Example 224, (3RS)-3-[6-(1-{2-[4-({6-[4-(cyclopropylamino)-3-(propan-2-yl)-3H-imidazo[4,5-c]pyridin-6-yl]-2-oxo-1-[(1S,3S)-3-(piperidin-1-yl)cyclobutyl]-1,2-dihydrospiro[indole-3,4′-piperidin]-1′-yl}carbonyl)-4-methylpiperidin-1-yl]-2-oxoethyl}piperidin-4-yl)pyridin-3-yl]piperidine-2,6-dione], the DC50 was 100 to 500 nM and the greatest degradation seen (Dmax) was 70 to 85%.

Turning to `CC(C)n1cnc2cc(-c3ccc4c(c3)N([C@H]3C[C@@H](N5CCCCC5)C3)C(=O)C43CCN(C(=O)C4(C)CCN(CC5CCN(c6ccc(C7CCC(=O)NC7=O)cn6)CC5)CC4)CC3)nc(NC3CC3)c21` (mixture of isomers) [Example 225, (3RS)-3-[6-(4-{[4-({6-[4-(cyclopropylamino)-3-(propan-2-yl)-3H-imidazo[4,5-c]pyridin-6-yl]-2-oxo-1-[(1S,3S)-3-(piperidin-1-yl)cyclobutyl]-1,2-dihydrospiro[indole-3,4′-piperidin]-1′-yl}carbonyl)-4-methylpiperidin-1-yl]methyl}piperidin-1-yl)pyridin-3-yl]piperidine-2,6-dione], the DC50 lay within 500 to 1000 nM and the maximal degradation (Dmax) fell in the range of 50 to 70%.

`Cc1cc(C2CCC(=O)NC2=O)ccc1N1CCC(C(=O)N2CCC(C)(C(=O)N3CCC4(CC3)C(=O)N([C@H]3C[C@@H](N5CCCCC5)C3)c3cc(-c5cc6ncn(C(C)C)c6c(NC6CC6)n5)ccc34)CC2)CC1` (mixture of isomers) [Example 226, (3RS)-3-(4-{4-[4-({6-[4-(cyclopropylamino)-3-(propan-2-yl)-3H-imidazo[4,5-c]pyridin-6-yl]-2-oxo-1-[(1S,3S)-3-(piperidin-1-yl)cyclobutyl]-1,2-dihydrospiro[indole-3,4′-piperidin]-1′-yl}carbonyl)-4-methylpiperidine-1-carbonyl]piperidin-1-yl}-3-methylphenyl)piperidine-2,6-dione]: the DC50 was 100 to 500 nM and the Dmax fell in the range of 70 to 85%.

For the compound `Cc1cc(N2CCC(C(=O)N3CCC(C)(C(=O)N4CCC5(CC4)C(=O)N([C@H]4C[C@@H](N6CCCCC6)C4)c4cc(-c6cc7ncn(C(C)C)c7c(NC7CC7)n6)ccc45)CC3)CC2)ccc1C1CCC(=O)NC1=O` (mixture of isomers) [Example 227, (3RS)-3-(4-{4-[4-({6-[4-(cyclopropylamino)-3-(propan-2-yl)-3H-imidazo[4,5-c]pyridin-6-yl]-2-oxo-1-[(1S,3S)-3-(piperidin-1-yl)cyclobutyl]-1,2-dihydrospiro[indole-3,4′-piperidin]-1′-yl}carbonyl)-4-methylpiperidine-1-carbonyl]piperidin-1-yl}-2-methylphenyl)piperidine-2,6-dione], the DC50 lay within 100 to 500 nM and the Dmax is 70 to 85%.

In the case of `CC(C)n1cnc2cc(-c3ccc4c(c3)N([C@H]3C[C@@H](N5CCCCC5)C3)C(=O)C43CCN(C(=O)[C@H]4CC[C@@H](C(=O)N5CCC(N(C)c6ccc(C7CCC(=O)NC7=O)cc6)CC5)CC4)CC3)nc(NC3CC3)c21` (mixture of isomers) [Example 228, (3RS)-3-{4-[methyl({1-[(1S,4S)-4-({6-[4-(cyclopropylamino)-3-(propan-2-yl)-3H-imidazo[4,5-c]pyridin-6-yl]-2-oxo-1-[(1S,3S)-3-(piperidin-1-yl)cyclobutyl]-1,2-dihydrospiro[indole-3,4′-piperidin]-1′-yl}carbonyl)cyclohexanecarbonyl]piperidin-4-yl})amino]phenyl}piperidine-2,6-dione], the DC50 fell in the range of 100 to 500 nM and the Dmax is 50 to 70%.

Regarding `CC(C)n1cnc2cc(-c3ccc4c(c3)N([C@H]3C[C@@H](N5CCCCC5)C3)C(=O)C43CCN(C(=O)CN4CCC(OCC#Cc5cccc6c5n(C)c(=O)n6C5CCC(=O)NC5=O)CC4)CC3)nc(NC3CC3)c21` (mixture of isomers) [Example 229, (3RS)-3-[4-(3-{[1-(2-{6-[4-(cyclopropylamino)-3-(propan-2-yl)-3H-imidazo[4,5-c]pyridin-6-yl]-2-oxo-1-[(1S,3S)-3-(piperidin-1-yl)cyclobutyl]-1,2-dihydrospiro[indole-3,4′-piperidin]-1′-yl}-2-oxoethyl)piperidin-4-yl]oxy}prop-1-yn-1-yl)-3-methyl-2-oxo-2,3-dihydro-1H-1,3-benzodiazol-1-yl]piperidine-2,6-dione], the 50% degradation concentration (DC50) is below 100 nM and the maximal degradation (Dmax) lay in the range of 70 to 85%.
